We go through three compounds from US20120142947A1, “Stabilized 3-Hydroxyflavan Compositions and Methods Therefor” (priority 2005, published 2012).

The data set is described as follows: Prevention of discoloration of EGCG solutions (absorbance at 492 nm). In kind it is physicochemical. Conditions: for protection of EGCG from discoloration by reducing agent: further experiments at the observed pH ranges (data not shown). The procedure:
Discoloration was measured using a spectrophotometer at a fixed wavelength of 492 nm. More specifically, solutions of EGCG (2 mM) and NAC (4 mM) were prepared in McIlvaine buffer at various pH levels in 1.0 increments between pH 3.0 to pH 7.0. A control experiment was set up without NAC but otherwise identical conditions. The so prepared solutions were incubated at 55° C. and the discoloration was measured at 492 nm over the next 15 days.

Take `CC(=O)N[C@@H](CS)C(=O)O` [NAC, N-acetyl cysteine]: the “protection of EGCG from discoloration by reducing agent” value (“protection of EGCG … by reducing agent” for short) is “prevented discoloration”. Under “EGCG (2 mM) and NAC (4 mM) in McIlvaine buffer, pH levels of less than 6.0, 55° C., over 15 days, versus control without NAC”, the “discoloration measured at 492 nm” value is on record as “substantially reduced”.

With `N[C@@H](CS)C(=O)O` [cysteine], the “protection of EGCG … by reducing agent” value was “failed to provide significant protection from discoloration”.

Regarding `N[C@@H](CCC(=O)N[C@@H](CS)C(=O)NCC(=O)O)C(=O)O` [glutathione], the “protection of EGCG … by reducing agent” value is “prevented discoloration”.
